{"source": "paper PMC7582727", "about": "“Functional Impact of BeKm-1, a High-Affinity hERG Blocker, on Cardiomyocytes Derived from Human-Induced Pluripotent Stem Cells” (International Journal of Molecular Sciences, 2020)", "key": {"[1]": {"test_system": "hiPS-CMs (clone C2a, ventricular-like)", "experiment": "Manual patch-clamp of spontaneous action potentials in hiPS-CMs", "assay_type": "cell-based, human", "source_text": "For this study, we used a non-commercial hiPS cell clone (C2a) that has been fully characterized earlier in the laboratory. The properties of the cardiomyocytes derived from this clone may differ to some extent from those of commercial clones, but this should not affect the nature of the conclusions derived from our investigations. […] The effects on AP characteristics also included the depolarization of the maximum diastolic potential (MDP) from −52.2 ± 1.7 mV to −36.1 ± 2.3 mV (n = 7, Figure 2D) and the decrease of maximal upstroke velocity from 6.9 ± 0.9 mV/s (vehicle, n = 7) to 4.6 ± 0.9 mV/s (BeKm-1, n = 7), representing an average 1.5-fold reduction (Figure 2E). […] The action potential duration (APD) at 30% and 50% of repolarization were spared, which is consistent with the role of hERG in the late phase of repolarization in these cells (Figure 2G). In contrast, BeKm-1 was able to delay the repolarization of these cells, increasing the APD at 90% repolarization (APD90) from 95.0 ± 8.4 ms (vehicle, n = 7) to 117.4 ± 11.3 ms (BeKm-1, n = 7; 23% increase) (Figure 2G). While these values could theoretically be corrected for the BeKm-1-induced variability in cycle length (Figure 2C) using the Fridericia cube root formula, the corrected data would be meaningless because of the additional depolarization in MDP (Figure 2D).\nhiPS-CMs: All experiments were performed on the human-induced pluripotent stem cell (hiPSC) clone C2a that has been previously characterized, including cardiac differentiation and electrophysiology data. Cells were expanded on stem cell-qualified matrigel-coated plates (0.05 mg/mL; BD Bioscience, Le Pont de Claix, France) and cultured in StemMACS iPS-BREW XF medium (Miltenyi Biotec, Paris, France). Cells were passaged every […] using Gentle Cell Dissociation Buffer (StemCell Technologies, Grenoble, France). Prior to differentiation, cells were cultured as a monolayer in StemMACS iPS-brew supplemented with 1 × Y-27632 Rho-associated, coiled-coil containing protein kinase (ROCK) inhibitor (StemCell Technologies, Grenoble, France). When hiPSCs reached proper confluence, they were differentiated into cardiomyocytes using previously described « Matrix sandwich » protocol. At day 20 ± 1 of differentiation, beating cardiomyocytes were manually dissected and isolated from non-beating cells. Briefly, cardiomyocytes were washed with phosphate-buffered saline (PBS) and treated with TrypLE Express (10x) (Thermo Fisher Scientific, Illkirch-Graffenstaden, France) for 5 min at 37 °C. The enzyme was inactivated by adding RPMI1640 medium containing 20% (vol/vol) KnockOut Serum Replacement (KSR) (Thermo Fisher Scientific, Illkirch-Graffenstaden, France). The supernatant was removed, and cells were suspended in RPMI1640 medium containing 20% (vol/vol) KSR and ROCK inhibitor. Then, the cells were plated on specific supports suitable for functional assessments.\nManual patch clamp: Single-cell dissociated hiPS-CMs were plated at low density on matrigel-coated 35 mm Petri dishes (Nunc from Thermo Fisher Scientific, Illkirch-Graffenstaden, France). Electrophysiological experiments were performed 12 to 14 days after dissociation. APs were recorded in the current-clamp mode, using the amphotericin-B-perforated patch-clamp technique. All experiments were conducted at 37 °C. APs were recorded either at basal state (spontaneous APs) or using the dynamic patch-clamp method to electronically mimic the expression of the inward rectifier potassium current, IK1 [23, 24]. The resting membrane potential (RMP) was set to −80 ± 5 mV by injecting 2 to 2.8 pA/pF in silico IK1 density. This level of current was set so that about 80% of the ventricular-like hiPS-CMs could reach these physiological RMP values. The remaining cells were discarded from the recording process. […]"}, "hERG channel": {"test_system": "hERG channel", "details": "cited from earlier work", "source_text": "The Kv11.1 channel (hERG) and the corresponding IKr current play a major role in cardiac repolarization (Figure S1). […] Long QT syndrome is one of the cardiac diseases that has been studied in the greatest detail. Type II long QT syndrome is associated with a decrease in IKr currents, as opposed to short QT syndrome, which is associated with increased IKr currents. Type II long QT syndrome is called “inherited” when a mutation in the gene encoding hERG, KCNH2, gives rise to a loss of ... || In this report, we focused on BeKm-1, a toxin that was originally isolated from the venom of Buthus eupeus scorpion. […] According to its 3D structure, the peptide adopts an α-helix and three β-strands organized in a twisted antiparallel β-sheet. By homology with other toxins, BeKm-1 is a member of the γ-KTx subfamily of scorpion toxins."}}, "note": "Entries after “also recorded” stand apart in the source; their conditions may differ. Positions of bridges follow the written chain, without caps; N, C: chain ends. Residues, ends and D or L forms follow the SMILES beside them.", "data": [{"smiles": "CC[C@H](C)[C@H](NC(=O)[C@H](CC(=O)O)NC(=O)[C@@H](NC(=O)[C@@H]1CCCN1C(=O)[C@@H](N)CCCNC(=N)N)[C@@H](C)O)C(=O)N[C@@H](CCCCN)C(=O)N[C@H]1CSSC[C@@H]2NC(=O)[C@H](CCCNC(=N)N)NC(=O)CNC(=O)[C@H](CC(N)=O)NC(=O)[C@H]([C@@H](C)O)NC(=O)[C@H](CCCCN)NC(=O)CNC(=O)[C@H](Cc3ccccc3)NC(=O)[C@H](CCCNC(=N)N)NC(=O)[C@H](CO)NC(=O)[C@H](CCCCN)NC(=O)[C@@H]3CSSC[C@@H](C(=O)N[C@@H](Cc4ccccc4)C(=O)O)NC(=O)[C@H](CC(=O)O)NC(=O)[C@H](CSSC[C@H](NC(=O)[C@H](CCC(N)=O)NC(=O)[C@H](Cc4ccc(O)cc4)NC(=O)[C@H](CO)NC(=O)[C@H](CCC(=O)O)NC(=O)[C@H](CO)NC1=O)C(=O)N[C@@H](Cc1ccccc1)C(=O)N1CCC[C@H]1C(=O)N[C@@H](C(C)C)C(=O)N3)NC(=O)[C@H](Cc1ccccc1)NC(=O)CNC(=O)[C@H](CC(N)=O)NC(=O)[C@H](C(C)C)NC2=O", "note": "[BeKm-1] (H-RPTDIKCSESYQCFPVCKSRFGKTNGRCVNGFCDCF-OH; disulfide 7-28, 13-33, 17-35 (inferred); N-terminus and C-terminus assumed)", "values": [{"measurement": "AP frequency", "setting": "[1]; 5 nM BeKm-1, 37 °C, vehicle 2.50 ± 0.20 Hz, n = 7, mean ± SEM, significant", "result": "0.70 ± 0.26", "unit": "Hz"}, {"measurement": "kinetics of AP parameter changes", "setting": "[1]; 5 nM application, Figure S2", "result": "changed according to similar kinetics"}, {"measurement": "maximal upstroke velocity, fold reduction", "setting": "[1]; 5 nM vs vehicle, average", "result": "1.5 -fold"}, {"measurement": "APD90 increase", "setting": "[1]; 5 nM vs vehicle, spontaneous APs", "result": 23, "unit": "%"}, {"measurement": "restitution of AP parameters after toxin washout", "setting": "[1]; 5 nM, representative time course, Figure S2", "result": "rather rapid restitution of these parameters after toxin washout"}, {"measurement": "APD at 30% and 50% of repolarization", "setting": "[1]; 5 nM, spontaneous APs", "result": "spared"}, {"measurement": "APD at 90% repolarization (APD90)", "setting": "[1]; 5 nM, spontaneous APs, vehicle 95.0 ± 8.4 ms, n = 7, mean ± SEM, not corrected for cycle length", "result": "117.4 ± 11.3", "unit": "ms"}, {"measurement": "APD90 variability", "setting": "[1]; 5 nM, Poincaré plot", "result": "increased"}, {"measurement": "AP rhythm variability", "setting": "[1]; 5 nM, Poincaré plot of consecutive APs", "result": "increase of rhythm variability"}, {"measurement": "maximal upstroke velocity (dV/dtmax)", "setting": "[1]; 5 nM, vehicle 6.9 ± 0.9 mV/s, n = 7, mean ± SEM", "result": "4.6 ± 0.9", "unit": "mV/s"}, {"measurement": "AP overshoot", "setting": "[1]; 5 nM, vehicle 29.9 ± 3.1 mV, n = 7, mean ± SEM, not significant", "result": "22.2 ± 6.4", "unit": "mV"}, {"measurement": "maximum diastolic potential (MDP)", "setting": "[1]; 5 nM, vehicle −52.2 ± 1.7 mV, n = 7, mean ± SEM", "result": "−36.1 ± 2.3", "unit": "mV"}, {"measurement": "beating / AP arrest", "setting": "[1]; 100 nM, representative trace of single hiPS-CM", "result": "AP arrest; also recorded: complete beating arrest by a major membrane depolarization"}, {"measurement": "early afterdepolarizations (EADs)", "setting": "[1]; spontaneously beating ventricular-like cells", "result": "never observed"}, {"measurement": "reversibility on wash", "setting": "[1]; wash after 5 nM, n = 5", "result": "fully restored all parameters"}, {"measurement": "selectivity for hERG", "setting": "hERG channel; in cardiomyocytes, no ref at the statement", "result": "highly selective for the hERG channel in cardiomyocytes"}, {"measurement": "IC50", "setting": "hERG channel; read-out: IC50, hERG (reported), ref [1],[2],[3],[4]", "result": "3.3 to 15.3", "unit": "nM"}, {"measurement": "other targets", "setting": "hERG channel; ref [1]", "result": "no other targets have been reported"}, {"measurement": "channel state blocked", "setting": "hERG channel; ref [4]", "result": "blocks the closed state of the channel"}, {"measurement": "binding site (face of channel)", "setting": "hERG channel; ref [9]", "result": "preferentially binds the hERG outer mouth"}]}]}
